Assays:
RAW264.7 cells = experiment: Cell viability assay (CCK-8); type: cell-based, Mouse; conditions: for cytotoxic activity on RAW264.7 macrophage cells: CCK-8, 24 h, among selected hybrid peptides and their parental peptides; for cell viability: RAW264.7 cells, lower doses of peptide, 24 h, CCK-8, OD450, 8 biological replicates
Procedure: The viability of peptide-treated RAW264.7 cells was determined using the Cell Counting Kit-8 (CCK-8) Assay Kit (Dojindo) ([42]). RAW264.7 cells were pre-seeded on a 96-well plate at a density of 3 × 10^4 cells/mL in 100 μL DMEM medium overnight. The cells were either treated with various concentrations of peptides or without peptides at 37°C and 5% CO2 for 24 h. Each well was incubated with 10 μL CCK-8 solution for 4 h in the darkness. Then, the absorbance at 450 nm was measured using a microplate reader. Cell viability was calculated as:
Cell viability (%)=(OD450 (sample)/OD450(control))×100%
where OD450(sample) is the absorbance at 450 nm of the cells with peptides treated and OD450(control) is the absorbance at 450 nm of the cells without peptides treated.

[1] = tested on: LPS-stimulated RAW264.7 cells; experiment: ELISA of cytokine release from LPS-stimulated RAW264.7 cells; type: cell-based, Mouse; conditions: RAW264.7, 10 μg/mL peptide 1 h before 100 ng/mL LPS, 12 h, ELISA of supernatant; compared to the other tested peptides; n = 3
Procedure: (§1) RAW264.7 cells were treated with or without 10 μg/mL peptides for 1h before the addition of 100 ng/mL LPS and further incubation for 12 h at 37°C. Levels of tumor necrosis factor-alpha (TNF-α), interleukin-6 (IL-6), and IL-1β were detected in culture supernatant and jejunum, respectively. In addition, the level of interferon-gamma (IFN-γ) was detected in the jejunum. ELISA was performed using a commercial ELISA kit (eBioscience, San Diego, USA).

[2] = tested on: LPS-induced intestinal inflammation; experiment: LPS-induced intestinal inflammation murine model; type: in vivo, C57/BL6 male mice
Procedure: Seventy-two C57/BL6 male mice (6–8 weeks of age) were purchased from Charles River (Beijing, China). Mice were maintained in a specific pathogen free (SPF) environment at 22 ± 1°C with relative 55 ± 10% humidity, and the assays were performed in conformity with the laws and regulations for live animal treatment at China Agricultural University.
The mice were randomly distributed into six groups (n = 12 each): control, LPS (E. coli, O111:B4, Sigma-Aldrich, USA) treatment, LL-37 pretreatment followed by LPS treatment (LL-37 + LPS), Tα1 pretreatment followed by LPS treatment (Tα1 + LPS), LTA pretreatment followed by LPS treatment (LTA + LPS). Different peptides (10 mg/kg mouse weight) were injected intraperitoneally once daily for 7 days, whereas an equal volume of sterile saline was injected intraperitoneally to the control and LPS-treated groups. On day 7, mice in LPS, LL-37 + LPS, Tα1 + LPS, and LTA + LPS groups were intraperitoneally injected with LPS (10 mg/kg mouse weight) 1h after saline or the peptides treatment, and the control group was intraperitoneally injected with an equal volume of saline. The mice were then euthanized by cervical dislocation 6 h after intraperitoneal injection of LPS or saline, and samples of the intestines were collected for analysis. The body weights of the mice were recorded before and after the experiment.
Intestinal tissues samples from the jejunum were fixed in 4% paraformaldehyde immediately after the mice were euthanized. After embedding, the tissues were sectioned (5 μm) using an RM2235 microtome (Leica) and stained with hematoxylin-eosin (H&E). Images were acquired using a DM3000 microscope. LPS-induced intestinal injury was evaluated using Chiu's score ([43]) according to changes of the villus and glands of the jejunal mucosa. Villus height and crypt depth were measured using CaseViewer software.
For immunohistochemical analysis of CD177^+, nonspecific binding sites were blocked with PBS containing 1% w/v BSA for 1 h. Anti-CD177^+ antibodies (Santa, USA) were added at a dilution of 1:100 and incubated overnight at 4°C. Samples were washed five times in PBS and treated with horse-radish peroxidase (HRP)-conjugated rabbit anti-goat IgG (JIR, USA) at ratio of 1:100; samples were left to incubate at 4°C for 1 h. After washing with PBS, 3,3′-diaminobenzidine (DAB; DAKO, USA) was added, and the slides were counterstained with Harris hematoxylin. Finally, the samples were dehydrated in an alcohol gradient (70–100%), and cleared in xylene. All slides were mounted in neutral balsam.
The apoptotic cells in the jejunal sections were detected via a commercial the terminal deoxynucleotidyl transferase mediated dUTP nick end labeling (TUNEL) staining kit according to the manufacturer's instruction (Roche, Indianapolis, IN, USA). The sections were co-stained with the DAPI (Servicebio, Wuhan, China). The number of apoptotic cells was counted in four to six randomly selected fields at 200 × magnification.
as §1
The activities of myeloperoxidase (MPO) in the jejunum were detected using ELISA kits (Boster Wuhan, China) according to the manufacturer's instructions.
Whole protein of intestinal tissues was obtained with the whole protein extraction kit (KeyGEN Biotech, Nanjing, China) according to the manufacturer's instructions. The protein concentration was measured via the BCA kit (KeyGEN Biotech, Nanjing, China). […]

[3] = Neutralization of LPS, Chromogenic End-point Tachypleus Amebocyte Lysate (CE TAL) assay; type: biochemical, E. coli
Procedure: The neutralization of LPS by the peptides was assessed using a quantitative Chromogenic End-point Tachypleus Amebocyte Lysate (CE TAL) assay via the QCL-1000 kit (Xiamen, China). A constant concentration of LPS (1.0 EU/mL final concentration; E. coli, O111:B4, Sigma-Aldrich, USA) was incubated with various concentrations of the peptides or polymyxin B (PMB) (0–64 μg/mL final concentration; Sigma-Aldrich, USA) at 37°C for 15 min in the wells of […] sterile microliters plates. The 100 μL aliquots concentrate of limulus amebocyte lysate reagent was added and incubated at 37°C for 6 min. On the addition of chromogenic substrate, yellow color appeared. The reactions were stopped by adding 25% HCl, and then the absorbances measured at 540 nm ([45]).

[4] = ELISA, peptide 10 mg/kg i.p. pretreatment, LPS 10 mg/kg, LTA compared to Tα1- or LL-37-pretreated groups, n = 12
[5] = jejunal tissues, western blot, LTA pretreatment vs LPS, n = 3
[6] = jejunum, western blot, LTA 10 mg/kg i.p. pretreatment, LPS 10 mg/kg

With “IGKEFKRIVQRIKDFLRNLVPRTEKEKKEVVE [LTA, hybrid peptide LL-37-Tα1]” the “cytotoxic activity on RAW264.7 macrophage cells” value (RAW264.7 cells) was “lowest cytotoxic activity”, the cell viability (RAW264.7 cells) was “greater than 100%” and the “release of IL-1β” value [1] was “remarkable decrease”. For the same sequence, the “release of IL-6” value [1] was “remarkable decrease”, the “release of TNF-α” value [1] was “remarkable decrease” and the “plasma LPS level” value ([2]; CE TAL test of mouse plasma, LTA 10 mg/kg i.p. pretreatment, LPS 10 mg/kg) was “significantly reduced the plasma LPS level”. For the same sequence, the “MPO activity in the jejunum” value ([2]; ELISA kit, peptide 10 mg/kg i.p. pretreatment, LPS 10 mg/kg, compared to the LPS-treated group, n = 12) was “markedly decreased MPO activity”, the “IFN-γ concentration in the jejunum” value [2, 4] was “significantly lower” and the “IL-1β concentration in the jejunum” value [2, 4] was “significantly lower”. For the same sequence, the “IL-6 concentration in the jejunum” value [2, 4] was “significantly lower”, the “TNF-α concentration in the jejunum” value [2, 4] was “significantly lower” and the “infiltration of CD177+ neutrophils into jejunal tissue” value ([2]; immunohistochemistry, peptide 10 mg/kg i.p. pretreatment, LPS 10 mg/kg) was “reduced this effect to the basal level”. The “apoptosis index (TUNEL staining)” value ([2]; jejunal sections, peptide 10 mg/kg i.p. pretreatment, LPS 10 mg/kg, compared to the LPS-treated group) was “significantly reduced the apoptosis index”, the “phosphorylation of IKK-β” value [2, 5] was “decreased” and the “phosphorylation of IκB-α” value [2, 5] was “decreased”. For the same sequence, the “phosphorylation of NF-κB” value [2, 5] was “decreased”, the “Chiu's score” value ([2]; jejunum H&E, mice, peptide 10 mg/kg i.p. once daily for 7 days, LPS 10 mg/kg i.p., 6 h after LPS, LPS group 3.33 ± 0.58, mean ± SD) was 0.67 ± 0.58 and the “expression of Occludin” value [2, 6] was “significantly higher than that in the LPS-group”. For the same sequence, the “expression of ZO-1” value [2, 6] was “significantly higher than that in the LPS-group”, the “villus height to crypt depth (V/C) ratio” value ([2]; jejunum, mice, peptide 10 mg/kg i.p. once daily for 7 days, LPS 10 mg/kg i.p., 6 h after LPS, LPS group 2.35 ± 0.389, mean ± SD) was 4.19 ± 0.364 and the “body weight (weight loss after LPS)” value ([2]; mice, peptide 10 mg/kg i.p. once daily, then LPS 10 mg/kg i.p. 1 h after last dose, n = 12) was “recovered their weight loss rapidly”. For the same sequence, the “concentration that completely neutralizes LPS” value ([3]; LPS 1.0 EU/mL, 37°C 15 min, CE TAL, n = 3) was at least 8 µg/mL, the “inhibition of the activation of tachypleus amebocyte lysate (LPS neutralization)” value ([3]; LPS 1.0 EU/mL, peptide 0–64 μg/mL, 37°C 15 min, n = 3) was “dose-dependent manner” and the “concentration that almost completely neutralizes LPS” value ([3]; in vitro, CE TAL, statement of the discussion) was 8 µg/mL.

For “IGKEFKRIVQRIKDFLRNLVPRTERKDVT [LTP, hybrid peptide LL-37-TP5]”, the “cytotoxic activity on RAW264.7 macrophage cells” value (RAW264.7 cells) was “lowest cytotoxic activity” and the cell viability (RAW264.7 cells) was “greater than 100%”.

Reference: paper PMC6691347, “Design and Development of a Novel Peptide for Treating Intestinal Inflammation” (Frontiers in Immunology, 2019)
